This note sets out measurements from patent publication US10927139B2, “Chemically cleavable group” (Tagworks Pharmaceuticals B.V., priority 2012, dated 2021).

Data set [1] can be described thus: Testing the feasibility of the deprotection of TCO compounds upon reaction with tetrazine. As to conditions: for 1 h. As to the method: (§1) The feasibility to use the TCO group as a protective group in chemistry was studied by testing the stability of a range of TCO derivatives as model compounds under various conditions, and following the deprotection upon reaction with a tetrazine derivative under these conditions.
Typical Example for Testing the Feasibility of the Deprotection
The TCO stock solution (10 μL 25 mM in acetonitrile; 2.5*10^−7 mol) was added to a solution of the specific condition (100 μL). A solution of 3,6-dimethyl-1,2,4,5-tetrazine (8, 20 μL 25 mM in acetonitrile; 5.0*10^−7 mol) was added, and the mixture was stirred at the specific condition for a certain amount of time. The reaction was monitored by HPLC-MS/PDA analysis and/or GC-MS analysis, and the percentage of deprotection was estimated.
(§2) A) in acetonitrile with 5 equivalents of pyridine per TCO at 20° C.
(§3) B) in acetonitrile with 5 equivalents of DIPEA per TCO at 20° C.
(§4) C) in acetonitrile with 5 equivalents of piperidine per TCO at 20° C.
(§5) D) in acetonitrile with 5 equivalents of n-butylamine per TCO at 20° C.
(§6) E) in acetonitrile with 5 equivalents of 2-mercaptoethanol per TCO at 20° C.
(§7) F) in tetrahydrofuran with 5 equivalents of triphenylphosphine per TCO at 20° C.
(§8) G) in acetonitrile with 5 equivalents of DCC per TCO at 20° C.
(§9) H) in acetonitrile with 5 equivalents of PyBOP per TCO at 20° C.
(§10) I) in acetonitrile with 1 v % of formic acid at 20° C.
(§11) J) in chloroform at 20° C.
(§12) K) in chloroform with 1 v % of formic acid at 20° C.
(§13) L) in chloroform with 1 v % of trifluoroacetic acid at 20° C.
(§14) M) in chloroform with 10 v % of trifluoroacetic acid at 20° C.
(§15) N) in chloroform with 33 v % of trifluoroacetic acid at 20° C.
(§16) Z) in 25% acetonitrile in water at 20° C.

Data set [2] is described as follows: Testing the stability of a TCO compound under chemical conditions (HPLC-MS/PDA, GC-MS). Type of data set: physicochemical. The following applies: for 1 h. As to the method: as §1
Typical Example for Testing the Stability of a TCO Compound
The TCO stock solution (10 μL 25 mM; 2.5*10^−7 mol) was added to a solution of the specific condition (100 μL). The mixture was stirred at the specific condition for a certain amount of time, and then the fate of the TCO compound was monitored by HPLC-MS/PDA analysis and/or GC-MS analysis, and an estimation of its stability was made.
as §2, §3, §4, §5, §6, §7, §8, §9, §10, §11, §12, §13, §14, §15, §16

[3] abbreviates: tetrazine 8; A) in acetonitrile with 5 equivalents of pyridine per TCO at 20° C.
Setting [4] is: tetrazine 8; B) in acetonitrile with 5 equivalents of DIPEA per TCO at 20° C.
Setting [5] is: tetrazine 8; G) in acetonitrile with 5 equivalents of DCC per TCO at 20° C.
[6] abbreviates: tetrazine 8; I) in acetonitrile with 1 v % of formic acid at 20° C.
Setting [7] is: tetrazine 8; Z) in 25% acetonitrile in water at 20° C.
Setting [8] is: A) in acetonitrile with 5 equivalents of pyridine per TCO at 20° C.
[9] abbreviates: B) in acetonitrile with 5 equivalents of DIPEA per TCO at 20° C.
Setting [10] is: G) in acetonitrile with 5 equivalents of DCC per TCO at 20° C.
Setting [11] is: I) in acetonitrile with 1 v % of formic acid at 20° C.
[12] abbreviates: Z) in 25% acetonitrile in water at 20° C.
The mark [13] stands for this setting: tetrazine 8; J) in chloroform at 20° C.

For the compound `O=C(Oc1ccc([N+](=O)[O-])cc1)OC1/C=C/CCCCC1` (centres unmarked), the “Deprotection (%)” value in data set [1] (setting [3]) is listed as 64%; in data set [1] (setting [4]) it was 90%; in data set [1] (setting [5]) it was 72%; in data set [1] (setting [6]), 97%; in data set [1] (setting [7]) it was 70%. Also, the “Stability of TCO” value in data set [2] (setting [8]), in data set [2] (setting [10]), in data set [2] (setting [11]) and in data set [2] (setting [12]) was “stable” throughout. For the same compound, in data set [2] (setting [9]), the “Stability of TCO: hydrolysis” value amounted to 19%.
Take `Cc1cc(C)cc(NC(=O)OC2/C=C/CCCCC2)c1` (centres unmarked) [drawing 128]: the “Deprotection (%)” value in data set [1] (setting [3]) is 55%; in data set [1] (setting [4]) it was 39%; in data set [1] (setting [5]) it was 91%; in data set [1] (setting [6]), 97%. Also, the “Stability of TCO” value in data set [2] (setting [8]), in data set [2] (setting [9]), in data set [2] (setting [10]) and in data set [2] (setting [11]) was “stable stable stable stable” throughout.
As for `O=C(NCc1cccc2ccccc12)OC1/C=C/CCCCC1` (centres unmarked), the “Deprotection (%)” value in data set [1] (setting [3]) turned out to be 87%; in data set [1] (setting [4]) it was 58%; in data set [1] (tetrazine 8; C) in acetonitrile with 5 equivalents of piperidine per TCO at 20° C.) it was 48%; in data set [1] (tetrazine 8; D) in acetonitrile with 5 equivalents of n-butylamine per TCO at 20° C.), 47%; in data set [1] (tetrazine 8; E) in acetonitrile with 5 equivalents of 2-mercaptoethanol per TCO at 20° C.), 67%; in data set [1] (tetrazine 8; F) in tetrahydrofuran with 5 equivalents of triphenylphosphine per TCO at 20° C.), 75%. Also, the “Deprotection (%)” value in data set [1] (setting [5]) was 74%; in data set [1] (tetrazine 8; H) in acetonitrile with 5 equivalents of PyBOP per TCO at 20° C.) it was 74%; in data set [1] (setting [6]), 93%; in data set [1] (setting [13]), 73%; in data set [1] (tetrazine 8; K) in chloroform with 1 v % of formic acid at 20° C.), 98%; in data set [1] (tetrazine 8; L) in chloroform with 1 v % of trifluoroacetic acid at 20° C.), 99%. Moreover, the “Deprotection (%)” value in data set [1] (tetrazine 8; M) in chloroform with 10 v % of trifluoroacetic acid at 20° C.) came out at 99%; in data set [1] (setting [7]), 85%. In addition, the “Stability of TCO” value in data set [2] (setting [8]), in data set [2] (setting [9]), in data set [2] (C) in acetonitrile with 5 equivalents of piperidine per TCO at 20° C.), in data set [2] (D) in acetonitrile with 5 equivalents of n-butylamine per TCO at 20° C.), in data set [2] (E) in acetonitrile with 5 equivalents of 2-mercaptoethanol per TCO at 20° C.) and in data set [2] (F) in tetrahydrofuran with 5 equivalents of triphenylphosphine per TCO at 20° C.) was “stable stable stable stable stable stable stable stable stable stable stable stable stable stable” in each case. Also, the “Stability of TCO” value in data set [2] (setting [10]), in data set [2] (H) in acetonitrile with 5 equivalents of PyBOP per TCO at 20° C.), in data set [2] (setting [11]), in data set [2] (J) in chloroform at 20° C.), in data set [2] (K) in chloroform with 1 v % of formic acid at 20° C.) and in data set [2] (L) in chloroform with 1 v % of trifluoroacetic acid at 20° C.) was “stable stable stable stable stable stable stable stable stable stable stable stable stable stable” throughout. The “Stability of TCO” value in data set [2] (M) in chloroform with 10 v % of trifluoroacetic acid at 20° C.) and in data set [2] (setting [12]) was “stable stable stable stable stable stable stable stable stable stable stable stable stable stable” throughout.
`C1=C/C(Oc2ccccc2)CCCCC/1` (centres unmarked) [drawing 120]: the “Deprotection (%)” value is 42% in data set [1] (setting [3]); 92% in data set [1] (setting [4]); 80% in data set [1] (setting [5]); 92% in data set [1] (setting [6]); 87% in data set [1] (setting [7]). Besides, the “Stability of TCO” value in data set [2] (setting [8]), in data set [2] (setting [9]), in data set [2] (setting [10]), in data set [2] (setting [11]) and in data set [2] (setting [12]) was “stable stable stable stable stable” throughout.
`Cc1cc(C)cc(NC(=O)OC2/C=C/CCCCC2)c1` (centres unmarked) [drawing 126]: the “Deprotection (%)” value turned out to be 14% in data set [1] (setting [3]), 4% in data set [1] (setting [4]), 61% in data set [1] (setting [5]) and 97% in data set [1] (setting [6]). Further, the “Stability of TCO” value in data set [2] (setting [8]), in data set [2] (setting [9]), in data set [2] (setting [10]) and in data set [2] (setting [11]) was “stable stable stable stable” throughout.
Regarding `C1=C/C(Oc2ccccc2)CCCCC/1` (centres unmarked) [drawing 122], the “Deprotection (%)” value in data set [1] (setting [7]) came out at 72%. Also, the “Stability of TCO” value in data set [2] (setting [12]) is given as “stable”.
With `O=C(Cc1ccccc1)C(C(=O)OC1/C=C/CCCCC1)c1ccccc1` (centres unmarked), the “Deprotection (%)” value in data set [1] (setting [13]) is 95%; in data set [1] (setting [7]) it was 70%. Further, the “Stability of TCO” value in data set [2] (J) in chloroform at 20° C.) and in data set [2] (setting [12]) was “stable stable” throughout.
Consider `C1=C/C(OCc2ccccc2)CCCCC/1` (centres unmarked), for which the results for the “Deprotection (%)” value in data set [1] (setting [13]) and in data set [1] (setting [7]) were 70% and 54%, respectively. The “Stability of TCO” value in data set [2] (J) in chloroform at 20° C.) and in data set [2] (setting [12]) was “stable stable” in each case.
On to `O=C(OC1/C=C/CCCCC1)c1ccc([N+](=O)[O-])cc1` (centres unmarked) [drawing 116], for which the “Deprotection (%)” value in data set [1] (setting [3]) was determined as 68%; in data set [1] (setting [4]) it was 83%; in data set [1] (setting [5]) it was 89%; in data set [1] (setting [6]), 95%; in data set [1] (setting [7]) it was 80%. For the same compound, the “Stability of TCO” value in data set [2] (setting [8]), in data set [2] (setting [10]), in data set [2] (setting [11]) and in data set [2] (setting [12]) was “stable” throughout. Also, in data set [2] (setting [9]), the “Stability of TCO: hydrolysis” value is approximately 2%.
Regarding `O=C(OC1/C=C/CCCCC1)c1ccc([N+](=O)[O-])cc1` (centres unmarked) [drawing 118], in data set [1] (setting [7]), the “Deprotection (%)” value is 66%. Moreover, in data set [2] (setting [12]), the “Stability of TCO” value is “stable”.
